Where two headings read alike, the source gives them in different places.
Key:
[1] = for time at which contrast enhancement of liver was well demonstrated: after contrast injection
Experimental: New Zealand White rabbits were used for all magnetic resonance imaging (MRI) experiments. A General Electric 1.5 Tesla system was used with the knee coil. T1W spin echo images were obtained every 10 minutes following contrast injection. Data points were taken as the time at the end of the scan. Each data point was measured in triplicate with sample signal intensities taken from the liver, kidney, and muscle. TR=750 msec. TE=37 msec. NEX=4. Flow compensation was used. Sedation was performed by using an initial injection of intramuscular ketamine at 110 mg/kg and pentobarbital intravenously at 2.2 cc/kg. Sedation was maintained with intermittent pentobarbital injections as needed at 1 cc/kg.
Two rabbits were given gadolinium DTPA bis-glucosamide at 0.1 mM/kg intravenously. MR images were taken before and after the injection of the contrast agent.
MR images were taken before and after the injection of contrast agent.
Gadolinium DTPA bis-pyriodoxamide was given intravenously at 0.1 mM/kg. MR images were taken before and after the injection of contrast agent.
Comparison is made with two animals which were given Gd DTPA (Schering A. G., Berlin, Germany) 0.1 mM/kg intravenously.

[2] = MR contrast enhancement of kidney in rabbits (T1W spin echo, 1.5 Tesla); type: in vivo, New Zealand White rabbits; conditions: 0.1 mM/kg intravenously; for time at which contrast enhancement of kidney was well demonstrated: after contrast injection
From the text: (§1) TR=750 msec. TE=37 msec. NEX=4. Flow compensation was used.

[3] = MR contrast enhancement of muscle in rabbits (T1W spin echo, 1.5 Tesla); type: in vivo, New Zealand White rabbits; conditions: 0.1 mM/kg intravenously
From the text: as §1

[4] = 11 min. P.I., 0.1 mM/kg intravenously
[5] = 21 min. P.I., 0.1 mM/kg intravenously
[6] = 31 min. P.I., 0.1 mM/kg intravenously
[7] = 44 min. P.I., 0.1 mM/kg intravenously
[8] = 54 min. P.I., 0.1 mM/kg intravenously
[9] = 64 min. P.I., 0.1 mM/kg intravenously
[10] = 76 min. P.I., 0.1 mM/kg intravenously
[11] = Pre-Contrast, 0.1 mM/kg intravenously
[12] = 85 min. P.I., 0.1 mM/kg intravenously

O=C([O-])CN(CCN(CC(=O)[O-])CC(=O)N[C@H]1C(O)O[C@H](CO)[C@@H](O)[C@@H]1O)CCN(CC(=O)[O-])CC(=O)N[C@H]1C(O)O[C@H](CO)[C@@H](O)[C@@H]1O.[Gd+3] (stereo partly shown) [Gd DTPA Bis-Glucosamide, gadolinium DTPA bis-glucosamide]
course of contrast enhancement after maximum, liver ([1]; 0.1 mM/kg intravenously): decreased gradually
decrease in contrast, liver versus kidney ([1]; 0.1 mM/kg intravenously): slower in the liver than in the kidney
enhancement of the liver compared to Gd DTPA ([1]; 0.1 mM/kg intravenously): improved enhancement
time until which maximum contrast enhancement was maintained, liver ([1]; 0.1 mM/kg intravenously): 22 min
time at which contrast enhancement of liver was well demonstrated ([1]; 0.1 mM/kg intravenously): 11 min
contrast enhancement, liver composite (av of 3) [1, 4]: 17.157%
contrast enhancement, liver composite (av of 3) [1, 5]: 14.172%
contrast enhancement, liver composite (av of 3) [1, 6]: 11.053%
contrast enhancement, liver composite (av of 3) [1, 7]: 7.390%
contrast enhancement, liver composite (av of 3) [1, 8]: 9.910%
contrast enhancement, liver composite (av of 3) [1, 9]: 3.151%
contrast enhancement, liver composite (av of 3) [1, 10]: 1.750%
contrast enhancement, liver composite (av of 3) [1, 11]: 0.000%
course of contrast enhancement after maximum, kidney [2]: decreased gradually
enhancement of the kidney compared to Gd DTPA [2]: improved enhancement
time until which maximum contrast enhancement was maintained, kidney [2]: 22 min
time at which contrast enhancement of kidney was well demonstrated [2]: 11 min
contrast enhancement, kidney composite (av of 3) ([2]; 11 min. P.I.): 77.532%
contrast enhancement, kidney composite (av of 3) ([2]; 21 min. P.I.): 68.552%
contrast enhancement, kidney composite (av of 3) ([2]; 31 min. P.I.): 46.320%
contrast enhancement, kidney composite (av of 3) ([2]; 44 min. P.I.): 42.172%
contrast enhancement, kidney composite (av of 3) ([2]; 54 min. P.I.): 31.288%
contrast enhancement, kidney composite (av of 3) ([2]; 64 min. P.I.): 30.596%
contrast enhancement, kidney composite (av of 3) ([2]; 76 min. P.I.): 22.065%
contrast enhancement, kidney composite (av of 3) ([2]; Pre-Contrast): 0.000%
contrast enhancement, muscle composite (av of 3) ([3]; 11 min. P.I.): 3.791%
contrast enhancement, muscle composite (av of 3) ([3]; 21 min. P.I.): -3.481%
contrast enhancement, muscle composite (av of 3) ([3]; 31 min. P.I.): -2.205%
contrast enhancement, muscle composite (av of 3) ([3]; 44 min. P.I.): -6.098%
contrast enhancement, muscle composite (av of 3) ([3]; 54 min. P.I.): -7.962%
contrast enhancement, muscle composite (av of 3) ([3]; 64 min. P.I.): -11.035%
contrast enhancement, muscle composite (av of 3) ([3]; 76 min. P.I.): -5.465%
contrast enhancement, muscle composite (av of 3) ([3]; Pre-Contrast): 0.000%

Cc1ncc(CO)c(CNC(=O)CN(CCN(CCN(CC(=O)[O-])CC(=O)NCc2c(CO)cnc(C)c2O)CC(=O)[O-])CC(=O)[O-])c1O.[Gd+3] [Gd DTPA Bis-Pyridoxamide, Gadolinium DTPA bis-pyriodoxamide]
liver enhancement (in words) ([1]; 0.1 mM/kg intravenously): negative liver enhancement
contrast enhancement, liver composite (av of 3) [1, 4]: -4.567%
contrast enhancement, liver composite (av of 3) [1, 5]: -4.805%
contrast enhancement, liver composite (av of 3) [1, 6]: -3.018%
contrast enhancement, liver composite (av of 3) [1, 11]: 0.000%
enhancement of the kidney compared to Gd DTPA [2]: improved renal enhancement
time of maximum contrast enhancement, kidney [2]: 11 min
time at which contrast enhancement of kidney was well demonstrated [2]: 11 min
contrast enhancement, kidney composite (av of 3) ([2]; 11 min. P.I.): 72.341%
contrast enhancement, kidney composite (av of 3) ([2]; 21 min. P.I.): 50.381%
contrast enhancement, kidney composite (av of 3) ([2]; 31 min. P.I.): 53.753%
contrast enhancement, kidney composite (av of 3) ([2]; Pre-Contrast): 0.000%
contrast enhancement, muscle composite (av of 3) ([3]; 11 min. P.I.): 7.089%
contrast enhancement, muscle composite (av of 3) ([3]; 21 min. P.I.): 6.846%
contrast enhancement, muscle composite (av of 3) ([3]; 31 min. P.I.): -12.884%
contrast enhancement, muscle composite (av of 3) ([3]; Pre-Contrast): 0.000%

O=C([O-])CN(CCN(CC(=O)[O-])CC(=O)N[C@H]1C(O)O[C@H](CO)[C@H](O)[C@@H]1O)CCN(CC(=O)[O-])CC(=O)N[C@H]1C(O)O[C@H](CO)[C@H](O)[C@@H]1O.[Gd+3] (stereo partly shown) [Gd DTPA Galactosamide, gadolinium DTPA galactosamide]
course of contrast enhancement after maximum, liver ([1]; 0.1 mM/kg intravenously): decreased rapidly
enhancement of the liver compared to Gd DTPA ([1]; 0.1 mM/kg intravenously): improved enhancement
time of maximum contrast enhancement, liver ([1]; 0.1 mM/kg intravenously): 11 min
time at which contrast enhancement of liver was well demonstrated ([1]; 0.1 mM/kg intravenously): 11 min
contrast enhancement, liver composite (av of 3) [1, 4]: 21.943%
contrast enhancement, liver composite (av of 3) [1, 5]: 13.116%
contrast enhancement, liver composite (av of 3) [1, 6]: 15.632%
contrast enhancement, liver composite (av of 3) [1, 7]: 11.724%
contrast enhancement, liver composite (av of 3) [1, 8]: 13.202%
contrast enhancement, liver composite (av of 3) [1, 9]: 8.360%
contrast enhancement, liver composite (av of 3) [1, 10]: 11.639%
contrast enhancement, liver composite (av of 3) [1, 12]: 15.451%
contrast enhancement, liver composite (av of 3) [1, 11]: 0.000%
time at which contrast agent appears to have been cleared from the liver ([1]; rabbit, in vivo, iv): 76 min
course of contrast enhancement after maximum, kidney [2]: decreased very slowly
time of maximum contrast enhancement, kidney [2]: 22 min
time at which contrast enhancement of kidney was well demonstrated [2]: 11 min
contrast enhancement, kidney composite (av of 3) ([2]; 11 min. P.I.): 52.932%
contrast enhancement, kidney composite (av of 3) ([2]; 21 min. P.I.): 47.999%
contrast enhancement, kidney composite (av of 3) ([2]; 31 min. P.I.): 46.968%
contrast enhancement, kidney composite (av of 3) ([2]; 44 min. P.I.): 41.697%
contrast enhancement, kidney composite (av of 3) ([2]; 54 min. P.I.): 41.936%
contrast enhancement, kidney composite (av of 3) ([2]; 64 min. P.I.): 42.336%
contrast enhancement, kidney composite (av of 3) ([2]; 76 min. P.I.): 37.335%
contrast enhancement, kidney composite (av of 3) ([2]; 85 min. P.I.): 26.562%
contrast enhancement, kidney composite (av of 3) ([2]; Pre-Contrast): 0.000%
enhancement of the muscle compared to Gd DTPA [3]: improved enhancement
contrast enhancement, muscle composite (av of 3) ([3]; 11 min. P.I.): 18.349%
contrast enhancement, muscle composite (av of 3) ([3]; 21 min. P.I.): 24.593%
contrast enhancement, muscle composite (av of 3) ([3]; 31 min. P.I.): 12.578%
contrast enhancement, muscle composite (av of 3) ([3]; 44 min. P.I.): 7.783%
contrast enhancement, muscle composite (av of 3) ([3]; 54 min. P.I.): 14.531%
contrast enhancement, muscle composite (av of 3) ([3]; 64 min. P.I.): 12.252%
contrast enhancement, muscle composite (av of 3) ([3]; 76 min. P.I.): -10.121%
contrast enhancement, muscle composite (av of 3) ([3]; 85 min. P.I.): -3.078%
contrast enhancement, muscle composite (av of 3) ([3]; Pre-Contrast): 0.000%

O=C([O-])CN(CCN(CC(=O)[O-])CC(=O)[O-])CCN(CC(=O)[O-])CC(=O)[O-].[Gd+3] [Gd DTPA, gadolinium diethylene triamine pentaacetic acid complex, reference compound]
contrast enhancement, liver composite (av of 3) [1, 4]: 4.822%
contrast enhancement, liver composite (av of 3) [1, 5]: 0.852%
contrast enhancement, liver composite (av of 3) [1, 6]: 6.132%
contrast enhancement, liver composite (av of 3) [1, 7]: -2.041%
contrast enhancement, liver composite (av of 3) [1, 8]: -2.714%
contrast enhancement, liver composite (av of 3) [1, 9]: -1.063%
contrast enhancement, liver composite (av of 3) [1, 10]: -0.232%
contrast enhancement, liver composite (av of 3) [1, 12]: -0.422%
contrast enhancement, liver composite (av of 3) [1, 11]: 0.000%
contrast enhancement, kidney composite (av of 3) ([2]; 11 min. P.I.): 52.456%
contrast enhancement, kidney composite (av of 3) ([2]; 21 min. P.I.): 40.275%
contrast enhancement, kidney composite (av of 3) ([2]; 31 min. P.I.): 28.971%
contrast enhancement, kidney composite (av of 3) ([2]; 44 min. P.I.): 29.243%
contrast enhancement, kidney composite (av of 3) ([2]; 54 min. P.I.): 28.405%
contrast enhancement, kidney composite (av of 3) ([2]; 64 min. P.I.): 27.052%
contrast enhancement, kidney composite (av of 3) ([2]; 76 min. P.I.): 23.751%
contrast enhancement, kidney composite (av of 3) ([2]; 85 min. P.I.): 14.643%
contrast enhancement, kidney composite (av of 3) ([2]; Pre-Contrast): 0.000%
contrast enhancement, muscle composite (av of 3) ([3]; 11 min. P.I.): 12.981%
contrast enhancement, muscle composite (av of 3) ([3]; 21 min. P.I.): 6.801%
contrast enhancement, muscle composite (av of 3) ([3]; 31 min. P.I.): 2.020%
contrast enhancement, muscle composite (av of 3) ([3]; 44 min. P.I.): -1.543%
contrast enhancement, muscle composite (av of 3) ([3]; 54 min. P.I.): -0.464%
contrast enhancement, muscle composite (av of 3) ([3]; 64 min. P.I.): -0.873%
contrast enhancement, muscle composite (av of 3) ([3]; 76 min. P.I.): -2.407%
contrast enhancement, muscle composite (av of 3) ([3]; 85 min. P.I.): -0.899%
contrast enhancement, muscle composite (av of 3) ([3]; Pre-Contrast): 0.000%
